Data published in article PMC6017698 (Molecules : A Journal of Synthetic Chemistry and Natural …, 2018).
Read-outs that look alike come from different tables or passages of the source.

How the values were obtained:
[1] = for PAMPA-BBB prediction of BBB permeation: class from Pe value
Protocol: (§1) The brain permeability (Pe) of the target compounds was determined in vitro using the parallel artificial membrane permeation assay for blood-brain barrier penetration described by Di et al. [41], employing a lipid extract of porcine brain membrane in a mixture of PBS/EtOH 70:30.

in vitro = conditions: PAMPA
Protocol: as §1

human recombinant AChE = target: T1, human recombinant AChE (Homo sapiens, UniProt P22303); assay: biochemical; assay type: biochemical; conditions: for IC50: human recombinant AChE; for selectivity for hAChE over hBChE inhibition: ratio of hBChE and hAChE IC50; for fold more potent hAChE inhibitor than pyridostigmine: relative to pyridostigmine
T1 construct: purchased Sigma, Milan, Italy
T1 sequence (P22303 32-614): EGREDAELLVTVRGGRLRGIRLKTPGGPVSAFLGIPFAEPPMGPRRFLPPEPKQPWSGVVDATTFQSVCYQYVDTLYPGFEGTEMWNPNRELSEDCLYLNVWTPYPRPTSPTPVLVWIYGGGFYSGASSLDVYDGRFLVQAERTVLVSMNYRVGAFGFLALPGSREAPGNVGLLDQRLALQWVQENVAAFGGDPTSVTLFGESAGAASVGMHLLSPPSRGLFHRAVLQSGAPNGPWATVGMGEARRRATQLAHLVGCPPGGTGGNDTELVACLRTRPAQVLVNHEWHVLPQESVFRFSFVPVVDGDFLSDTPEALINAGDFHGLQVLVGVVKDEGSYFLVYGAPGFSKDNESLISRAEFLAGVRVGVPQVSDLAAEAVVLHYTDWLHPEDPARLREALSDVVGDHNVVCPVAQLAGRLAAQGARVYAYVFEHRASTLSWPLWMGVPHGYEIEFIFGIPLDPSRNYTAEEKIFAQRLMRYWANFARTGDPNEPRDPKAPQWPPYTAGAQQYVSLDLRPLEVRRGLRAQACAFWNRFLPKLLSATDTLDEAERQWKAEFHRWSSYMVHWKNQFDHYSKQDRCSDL

human serum BChE = human serum BChE (Homo sapiens, UniProt P06276); assay: biochemical
Chain of human serum BChE (P06276 29-602): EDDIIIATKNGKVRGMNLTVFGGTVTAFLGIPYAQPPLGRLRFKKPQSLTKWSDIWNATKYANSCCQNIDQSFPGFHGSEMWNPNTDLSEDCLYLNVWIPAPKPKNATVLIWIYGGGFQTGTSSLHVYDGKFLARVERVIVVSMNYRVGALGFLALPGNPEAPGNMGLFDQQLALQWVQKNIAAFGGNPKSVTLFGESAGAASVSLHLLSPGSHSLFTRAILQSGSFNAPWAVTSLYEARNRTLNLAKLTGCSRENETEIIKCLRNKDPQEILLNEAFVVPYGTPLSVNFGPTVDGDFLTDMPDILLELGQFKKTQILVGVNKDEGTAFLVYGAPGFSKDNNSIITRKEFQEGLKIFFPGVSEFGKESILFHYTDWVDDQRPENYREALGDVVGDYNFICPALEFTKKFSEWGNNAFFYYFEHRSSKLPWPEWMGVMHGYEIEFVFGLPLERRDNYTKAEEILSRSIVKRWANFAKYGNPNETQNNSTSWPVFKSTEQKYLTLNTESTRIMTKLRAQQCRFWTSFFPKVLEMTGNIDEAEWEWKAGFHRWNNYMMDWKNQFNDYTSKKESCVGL

[2] = commercial drugs used for assay validation; cited from earlier work
[3] = mean ± SEM of at least three experiments, each in duplicate, read-out: hAChE IC50
[4] = mean ± SEM of at least three experiments, each in duplicate, read-out: hBChE IC50

Nc1c2c(nc3cc(Cl)ccc13)CCCC2 [6-chlorotacrine, reference compound]
PAMPA-BBB prediction of BBB permeation [1]: CNS+ (High BBB permeation (CNS+) is expected for compounds with Pe > 5.19)
Papp (in vitro; pig): 19.8 ± 0.4 ×10⁻⁶ cm/s

C[n+]1c2c(c(N)c3ccccc31)CCCC2.[I-] [Compound 4, 9-Amino-1,2,3,4-tetrahydro-10-methylacridin-10-ium iodide]
PAMPA-BBB prediction of BBB permeation [1]: CNS− (low BBB permeation (CNS−) is expected for compounds with Pe < 2.07)
IC50 (human recombinant AChE; [3]): 12000 ± 1000 nM
Papp (in vitro): 1.7 ± 1.5 ×10⁻⁶ cm/s
IC50 (human serum BChE; [4]): 2850 ± 190 nM

C[n+]1c2c(c(N)c3ccc(Cl)cc31)CCCC2.[I-] [Compound 5, 9-Amino-6-chloro-1,2,3,4-tetrahydro-10-methylacridin-10-ium iodide]
PAMPA-BBB prediction of BBB permeation [1]: CNS− (low BBB permeation (CNS−) is expected for compounds with Pe < 2.07)
IC50 (human recombinant AChE; [3]): 2450 ± 280 nM
Papp (in vitro): 1.2 ± 0.8 ×10⁻⁶ cm/s
IC50 (human serum BChE; [4]): 22300 ± 1500 nM

CC1=CC2Cc3c(c(N)c4ccc(Cl)cc4[n+]3C)C(C1)C2.[I-] (centres unmarked) [Compound 6, 12-Amino-3-chloro-6,7,10,11-tetrahydro-5,9-dimethyl-7,11-methanocycloocta[b]quinolin-5-ium iodide]
PAMPA-BBB Pe ([1]; PBS/EtOH 70:30, mean of three independent experiments ± SD): 10.90 10^−6 cm/s
PAMPA-BBB prediction of BBB permeation [1]: CNS+ (High BBB permeation (CNS+) is expected for compounds with Pe > 5.19)
Papp (in vitro): 10.9 ± 1.5 ×10⁻⁶ cm/s

OCCc1cn(CCNc2c3c(nc4ccccc24)CCCC3)nn1 [Compound 9, 2-{1-[2-(1,2,3,4-Tetrahydroacridin-9-ylamino)ethyl]-1H-1,2,3-triazol-4-yl}ethanol]
PAMPA-BBB prediction of BBB permeation [1]: CNS− (low BBB permeation (CNS−) is expected for compounds with Pe < 2.07)
IC50 (human recombinant AChE; [3]): 1730 ± 120 nM
Papp (in vitro; pig): 0.03 ± 0.001 ×10⁻⁶ cm/s
IC50 (human serum BChE; [4]): 170 ± 10 nM

OCCc1cn(CCNc2c3c(nc4cc(Cl)ccc24)CCCC3)nn1 [Compound 10, 2-{1-[2-(6-Chloro-1,2,3,4-tetrahydroacridin-9-ylamino)ethyl]-1H-1,2,3-triazol-4-yl}ethanol]
PAMPA-BBB prediction of BBB permeation [1]: CNS− (low BBB permeation (CNS−) is expected for compounds with Pe < 2.07)
IC50 (human recombinant AChE; [3]): 200 ± 10 nM
selectivity for hAChE over hBChE inhibition (human recombinant AChE): 16
fold more potent hAChE inhibitor than pyridostigmine (human recombinant AChE): 7 fold
Papp (in vitro; pig): 0.02 ± 0.001 ×10⁻⁶ cm/s
IC50 (human serum BChE; [4]): 3250 ± 170 nM

COc1cc(CNC(=O)Cc2cn(CCNc3c4c(nc5ccccc35)CCCC4)nn2)ccc1O [Compound 15, N-[4-(hydroxy)-3-methoxybenzyl]-2-{1-[2-(1,2,3,4-tetrahydroacridin-9-ylamino)ethyl]-1H-1,2,3-triazol-4-yl}acetamide]
PAMPA-BBB prediction of BBB permeation [1]: CNS− (low BBB permeation (CNS−) is expected for compounds with Pe < 2.07)
IC50 (human recombinant AChE; [3]): 250 ± 10 nM
Papp (in vitro; pig): 0.03 ± 0.001 ×10⁻⁶ cm/s
IC50 (human serum BChE; [4]): 50 nM
IC50 (human serum BChE; values given in nM (table footnotes), read-out: IC50 hBChE): 54.8 nM

COc1cc(CNC(=O)Cc2cn(CCNc3c4c(nc5cc(Cl)ccc35)CCCC4)nn2)ccc1O [Compound 16, 2-{1-[2-(6-Chloro-1,2,3,4-tetrahydroacridin-9-ylamino)ethyl]-1H-1,2,3-triazol-4-yl}-N-[4-(hydroxy)-3-methoxybenzyl]acetamide]
PAMPA-BBB prediction of BBB permeation [1]: CNS±
IC50 (human recombinant AChE; [3]): 10 nM
IC50 (human recombinant AChE; values given in nM (table footnotes, text), read-out: IC50 hAChE): 7.18 nM
selectivity for hAChE over hBChE inhibition (human recombinant AChE): 40
fold more potent hAChE inhibitor than pyridostigmine (human recombinant AChE): 192 fold
Papp (in vitro; pig): 2.97 ± 0.61 ×10⁻⁶ cm/s
IC50 (human serum BChE; [4]): 290 ± 10 nM

CCn1cc(C(=O)O)c(=O)c2cc(F)c(N3CCNCC3)cc21 [Norfloxazin, reference compound]
Experimental Pe ([1]; commercial drugs used for assay validation, mean ± SD of three independent experiments): 0.9 ± 0.1 10^−6 cm s^−1

CN1C(C(=O)Nc2ccccn2)=C(O)c2ccccc2S1(=O)=O [Piroxicam]
Reported Pe [2]: 2.5 10^−6 cm s^−1

CN(C)CCCN1c2ccccc2Sc2ccccc21 [Promazine]
Reported Pe [2]: 8.8 10^−6 cm s^−1
